This is an account of results in patent US20230157952A1, “METHOD FOR IMPROVING THE STABILITY OF A PHARMACEUTICAL COMPOSITION COMPRISING A HIGH PENETRATION DRUG, AND THE PHARMACEUTICAL COMPOSITION OBTAINED THEREFROM” (Techfields Inc., priority 2020, published 2023).

Common to all, as to format: physicochemical
The nature of data set [1]: Effect of temperature (and pH) on the stability of the solution (purity). The note with it: for Purity (%) at day 30 (60° C.) / Purity (%) at day 90 (60° C.) / Purity (%) at day 180 (60° C.) / Purity (%) at day 360 (60° C.) / Purity(%) at day 0 / Purity(%) at day 30 (5° C.) / Purity(%) at day 30 (25° C.) / Purity(%) at day 30 (40° C.) / Purity(%) at day 90 (5° C.) / Purity(%) at day 90 (25° C.) / Purity(%) at day 90 (40° C.) / Purity(%) at day 180 (5° C.) / Purity(%) at day 180 (25° C.) / Purity(%) at day 180 (40° C.) / Purity(%) at day 360 (5° C.) / Purity(%) at day 360 (25° C.) / Purity(%) at day 360 (40° C.): 5% solution with 1 equivalent sodium acetate in 25% ethanol, pH 4.49-4.51.

Data set [2] can be described thus: Effect of pH value on the stability of the solution (purity). The note with it: for Purity(%) from day 0-28 / Purity(%) from day 0-14: 25° C.; for pH at which the solution is stable: 5% solution in 25% ethanol at 25° C.; for Time the solution can be stored at room temperature: 5% solution in 25% ethanol, pH 3-6.
Data set [3] can be described thus: Stability of the pure HPDs (dry solid) at 25° C./RH 60%. The note with it: for Purity: pure HPD, 25° C./RH 60%; for Stability of the pure powder: room temperature (25° C./RH 60%); for Purity at 3 month / Purity at 6 month / Purity at 9 month / Purity at 12 month / Purity at 18 month / Purity at 24 month / Purity at Day 0: pure HPD at 25° C./RH 60%.
The mark [4] stands for this setting: day 28, pH 1.0, 7% in 25% ethanol.
[5] abbreviates: day 28, pH 2.0, 7% in 25% ethanol.
Setting [6] is: day 28, pH 3.0, 7% in 25% ethanol.
Setting [7] is: day 28, pH 3.7, 7% in 25% ethanol.
The mark [8] stands for this setting: day 28, pH 4.6, 7% in 25% ethanol.
The mark [9] stands for this setting: day 28, pH 5.0, 7% in 25% ethanol.
[10] abbreviates: day 28, pH 6.0, 7% in 25% ethanol.
The mark [11] stands for this setting: day 28, pH 7.0, 7% in 25% ethanol.
Setting [12] is: day 28, pH 8.0, 7% in 25% ethanol.

Non-standard residues stand in square brackets, D forms with d. *: point of attachment. Arg(NO2) = N=C(NCCC[C@H](N)C(=O)O)N[N+](=O)[O-]; OiPr = CC(C)O*

Take `CCN(CC)CCOC(=O)C(C)c1ccc(CC(C)C)cc1.Cl` (racemic) [C-4, 2-(diethylamino)ethyl (R,S)-2-(p-isobutylphenyl)propionate•HCl salt]: the “Stability of the solution at a temperature higher than 40° C. and a pH lower than 3 or greater than 6” value in data set [1] (7% solution in water) is on record as “not stable”. The “Purity(%) from day 0-28” value came to 69.1 ± 0.2% in data set [2] (setting [4]); 80.8 ± 0.4% in data set [2] (setting [5]); 92.5 ± 0.3% in data set [2] (setting [6]); 97.2 ± 0.4% in data set [2] (setting [7]); 97.3 ± 0.3% in data set [2] (setting [8]); 94.3 ± 0.2% in data set [2] (setting [9]). In addition, the figures for the “Purity(%) from day 0-28” value in data set [2] (setting [10]), in data set [2] (setting [11]) and in data set [2] (setting [12]) were 89.9 ± 0.3%, 52.8 ± 0.4% and 35.3 ± 0.3%, respectively. Also, the Purity is 99.9 ± 0.2 in data set [3] (3 month, listed as C-1-1); 99.8 ± 0.2 in data set [3] (6 month, listed as C-1-1); 99.8 ± 0.3 in data set [3] (9 month, listed as C-1-1); 98.1 ± 0.3 in data set [3] (12 month); 99.5 ± 0.3 in data set [3] (12 month, listed as C-1-1); 98.0 ± 0.1 in data set [3] (18 month). The Purity in data set [3] (18 month, listed as C-1-1) is given as 99.8 ± 0.3; in data set [3] (24 month), 97.9 ± 0.3; in data set [3] (24 month, listed as C-1-1) it was 99.7 ± 0.4; in data set [3] (Day 0, listed as C-1-1), 99.8 ± 0.1.

As to `CCCCC(=O)O.CCN(CC)CCOC(=O)c1ccccc1OC(C)=O` [A-4, 2-(diethylamino)ethyl acetylsalicylate•valeric acid], the “Purity(%) from day 0-14” value in data set [2] (day 14, pH 1.0, 7% in water) is on record as 58.1 ± 0.3%; in data set [2] (day 14, pH 2.0, 7% in water), 77.3 ± 0.2%; in data set [2] (day 14, pH 3.0, 7% in water), 87.5 ± 0.3%; in data set [2] (day 14, pH 3.7, 7% in water), 93.2 ± 0.3%; in data set [2] (day 14, pH 4.0, 7% in water) it was 94.2 ± 0.4%; in data set [2] (day 14, pH 4.3, 7% in water) it was 94.7 ± 0.2%. Also, the “Purity(%) from day 0-14” value was 94.0 ± 0.2% in data set [2] (day 14, pH 4.6, 7% in water); 85.5 ± 0.4% in data set [2] (day 14, pH 5.0, 7% in water); 77.3 ± 0.3% in data set [2] (day 14, pH 6.0, 7% in water); 52.5 ± 0.4% in data set [2] (day 14, pH 7.0, 7% in water); 15.2 ± 0.4% in data set [2] (day 14, pH 8.0, 7% in water). For the same compound, the Purity in data set [3] (6 month) amounted to 98.6 ± 0.1; in data set [3] (12 month) it was 98.0 ± 0.2; in data set [3] (18 month) it was 97.9 ± 0.2; in data set [3] (24 month) it was 97.2 ± 0.1; in data set [3] (Day 0) it was 98.6 ± 0.2.

With `CC(C)Cc1ccc([C@@H](C)C(=O)OC[C@@H]2CCCN2)cc1.Cl` [C-7, 2-pyrrolidinemethyl (R,S)-2-(p-isobutylphenyl)propionate•HCl salt], the “Purity(%) from day 0-28” value in data set [2] (setting [4]) turned out to be 66.8 ± 0.3%; in data set [2] (setting [5]), 86.0 ± 0.4%; in data set [2] (setting [6]), 86.0 ± 0.3%; in data set [2] (setting [7]), 94.3 ± 0.3%; in data set [2] (day 28, pH 4.0, 7% in 25% ethanol), 95.8 ± 0.3%; in data set [2] (day 28, pH 4.3, 7% in 25% ethanol), 96.5 ± 0.4%. The “Purity(%) from day 0-28” value in data set [2] (setting [8]) was found to be 96.2 ± 0.3%; in data set [2] (setting [9]), 89.3 ± 0.2%; in data set [2] (setting [10]) it was 86.2 ± 0.3%; in data set [2] (setting [11]), 48.0 ± 0.3%; in data set [2] (setting [12]) it was 34.3 ± 0.4%. Besides, the Purity in data set [3] (9 month) turned out to be 98.1 ± 0.1; in data set [3] (18 month), 98.0 ± 0.3; in data set [3] (24 month) it was 97.9 ± 0.1.

“H-Tyr-Gly-Gly-Phe-Met-OCH(CH3)2.HCl [U-2]”: the “pH at which the solution is stable” value in data set [2] is reported as 3-6. Moreover, in data set [2], the “Time the solution can be stored at room temperature” value (shortened to “Time the solution can be stored”) is recorded as “about 1 year”. Moreover, the Purity is listed as 98.9 ± 0.3 in data set [3] (3 month); 98.6 ± 0.2 in data set [3] (6 month); 98.6 ± 0.3 in data set [3] (9 month); 98.5 ± 0.2 in data set [3] (12 month); 98.5 ± 0.2 in data set [3] (18 month); 98.4 ± 0.2 in data set [3] (24 month). The same compound registered a Purity in data set [3] (Day 0) of 98.9 ± 0.1. Further, the “Stability of the pure powder” value in data set [3] was “very stable”.

On to “H-Val-Pro-Asp[OCH(CH3)2]-Pro-Arg(NO2)—OCH(CH3)2•HCl [T-3]”, for which, in data set [1], the “Purity (%) at day 30 (60° C.)” value came to 33.2 ± 0.3%, the “Purity (%) at day 90 (60° C.)” value was found to be 0%, the “Purity (%) at day 180 (60° C.)” value is on record as 0% and the “Purity (%) at day 360 (60° C.)” value is recorded as 0%. Also, in data set [1], the “Purity(%) at day 0” value came out at 99.1 ± 0.1%, the “Purity(%) at day 30 (5° C.)” value amounted to 98.9 ± 0.2%, the “Purity(%) at day 30 (25° C.)” value is recorded as 97.9 ± 0.3% and the “Purity(%) at day 30 (40° C.)” value worked out at 71.9 ± 0.2%. Besides, in data set [1], the “Purity(%) at day 90 (5° C.)” value stood at 98.6 ± 0.3%, the “Purity(%) at day 90 (25° C.)” value turned out to be 97.2 ± 0.3%, the “Purity(%) at day 90 (40° C.)” value is reported as 34.2 ± 0.3% and the “Purity(%) at day 180 (5° C.)” value is on record as 97.9 ± 0.2%. In addition, in data set [1], the “Purity(%) at day 180 (25° C.)” value is on record as 95.2 ± 0.3%, the “Purity(%) at day 180 (40° C.)” value was found to be 13.5 ± 0.3%, the “Purity(%) at day 360 (5° C.)” value is 97.4 ± 0.3% and the “Purity(%) at day 360 (25° C.)” value is given as 92.5 ± 0.4%. The “Purity(%) at day 360 (40° C.)” value in data set [1] worked out at 0%. Besides, in data set [2], the “pH at which the solution is stable” value is 3-6 and the “Time the solution can be stored” value is on record as “about 1 year”. Further, in data set [3], the “Purity at 3 month” value is given as 99.0 ± 0.2, the “Purity at 6 month” value worked out at 99.0 ± 0.2, the “Purity at 9 month” value amounted to 98.8 ± 0.2 and the “Purity at 12 month” value was determined as 98.7 ± 0.0. Also, in data set [3], the “Purity at 18 month” value came to 98.6 ± 0.0, the “Purity at 24 month” value is given as 98.5 ± 0.2, the “Purity at Day 0” value amounted to 99.1 ± 0.2 and the “Stability of the pure powder” value is listed as “very stable”.

Take “H-Val-Pro-Gly-Pro-Arg(NO2)—OCH(CH3)2•HCl (H-VPGP[Arg(NO2)]-OiPr; also: HCl salt)”: in data set [1], the “Purity (%) at day 30 (60° C.)” value was determined as 32.4 ± 0.4%, the “Purity (%) at day 90 (60° C.)” value amounted to 0%, the “Purity (%) at day 180 (60° C.)” value is 0% and the “Purity (%) at day 360 (60° C.)” value stood at 0%. Moreover, in data set [1], the “Purity(%) at day 0” value was 98.7 ± 0.2%, the “Purity(%) at day 30 (5° C.)” value amounted to 98.5 ± 0.3%, the “Purity(%) at day 30 (25° C.)” value is 97.7 ± 0.2% and the “Purity(%) at day 30 (40° C.)” value was determined as 71.6 ± 0.2%. Besides, in data set [1], the “Purity(%) at day 90 (5° C.)” value worked out at 98.4 ± 0.3%, the “Purity(%) at day 90 (25° C.)” value came out at 97.0 ± 0.3%, the “Purity(%) at day 90 (40° C.)” value is 32.7 ± 0.3% and the “Purity(%) at day 180 (5° C.)” value amounted to 97.8 ± 0.3%. Also, in data set [1], the “Purity(%) at day 180 (25° C.)” value is reported as 95.1 ± 0.3%, the “Purity(%) at day 180 (40° C.)” value worked out at 12.2 ± 0.3%, the “Purity(%) at day 360 (5° C.)” value came out at 97.3 ± 0.3% and the “Purity(%) at day 360 (25° C.)” value is 92.2 ± 0.2%. Further, the “Purity(%) at day 360 (40° C.)” value in data set [1] worked out at 0%. In data set [2], the “pH at which the solution is stable” value was 3-6 and the “Time the solution can be stored” value is “about 1 year”. Also, in data set [3] (in % (unit assumed)), the “Purity at 3 month” value is recorded as 98.8 ± 0.2, the “Purity at 6 month” value came to 98.6 ± 0.2, the “Purity at 9 month” value is given as 98.5 ± 0.2 and the “Purity at 12 month” value is on record as 98.4 ± 0.3. In data set [3] (in % (unit assumed)), the “Purity at 18 month” value turned out to be 98.2 ± 0.3, the “Purity at 24 month” value is recorded as 98.2 ± 0.2 and the “Purity at Day 0” value amounted to 98.7 ± 0.2. In addition, the “Stability of the pure powder” value in data set [3] is recorded as “very stable”.
